Molecules are shown by their SMILES. Where two headings read alike, the source gives them in different places. Bounds are passed on as bounds.

A short description of series [1]: Metabolism by human liver microsomes. It is filed as in vitro ADME. Particulars: in the presence of NADPH; for Scoring (% of drug remaining after 60 minutes, PDR60): Table 8, 10 µM, 1 mg/mL protein. As for the experimental part: Representative compounds of the invention (i.e., test compounds) and the positive control, 7-ethoxycoumarin, were prepared as stock solutions at 10 mM in DMSO and eventually diluted to 10 μM in the test plate, with an appropriate amount of acetonitrle and tris HCl buffer. Final DMSO and acetonitrile concentrations were […] and 0.5% respectively. NADPH was prepared in tris HCl buffer to a stock of 10 mM. A frozen aliquot of live microsomes was retrieved from the freezer (−80° C.) and thawed by placing the tube on wet ice. After thawing, the tubes were gently mixed and the required amount, transferred to tris HCl buffer. Test compounds or positive control were pre-incubated, separately, for 10 minutes, with liver microsomes (1 mg/mL protein), at 37° C., in 100 mM Tris HCl at pH 7.5. After preincubation the reaction was started by adding 1 mM NADPH (pre-equilibrated to […]) and the reaction allowed to proceed for 60 minutes. At 60 minutes, a 50 μL aliquot was removed and quenched with 200 uL of acetonitrile containing a mixture of internal standards (Tolbutamide (500 ng/mL) and Telmistartan (500 ng/mL)) and vortexed then centrifuged at 4000 rmp for 10 minutes (Eppendorf 5810R). The supernatant was transferred to a 96 well plate for LC-MS/MS analysis.
An LC-MS/MS method was devised for the test compounds and the control, using a AB Sciex API 4000 system coupled to a NEXAR™ UHPLC (Shimadzu) system. Analytes were separated on a Phenomenex Kinetex C18 column (50×2.1 mm, 5 μm) using a gradient that was appropriate for each compound, at a flow rate of 1 ml/minute, utilizing a mobile phase of 0.1% formic acid in MILLI-Q™ water (A) and 0.1% formic acid in acetonitrile (B). The MS instrument was operated in positive mode (ESI+)/negative (ESI−). The multiple reaction monitoring (MRM) transition for test and control compounds was used for the LC-MS/MS analysis. MRM transitions for control compound 7-ethoxycoumarinm were Quadropole 1: 191.0, Quadropole 3: 163.0, dwell time: 75 msec, using curtain gas settings of 5 V, ion-spray voltage of 5500 V, temperature of 50° C. and gas settings for nebulizer and auxiliary set to 30 and 40 psi, respectively. The interface heater was kept on. Entrance potential and collision cell exit potential were varied to tune for a specific compound.
Using a suitable LC-MS/MS method, the percentage of drug remaining at 60 minutes ([…]) was assessed by comparing the average analyte to internal standard area ratio at 60 minutes to the average analyte to internal standard area ratio at 0 time control, as a percentage, from a 5 to 10 μL sample injection.
According to the above assay, the representative compounds listed in Table 8 below were active in the Human liver microsome assay at […] and the % of drug remaining after 60 minutes (PDR60), in the presence of NADPH, was assessed by LC-MS/MS. Average PDR60 for the standard compound, 7-ethoxycoumarin was <=65% in the presence of NADPH. Scoring for the test compounds, in the presence of NADPH, was as follows: “A” represents a PDR^60 of 81 to 100%, “B” represents a PDR^60 of 61 to 80%, “C” represents a PDR^60 of 31 to 60% and “D” represents a PDR^60 of 0 to 30%.
Background: Microsomes from liver hold many membrane-bound enzymes, among them those of drug oxidation.

The test system of series [2] is Rat DRG. The series can be described thus: Rat dorsal root ganglion excitability response (EFS, Ca2+ transients). The class given is cell-based. As for the experimental part:
Dorsal root ganglions (DRGs) were dissected from adult rats. The tissue was processed, and cells were seeded into call culture plates (48 center wells of one quadrant in 384-well plates) and cultured for 2 days prior to Electrical field stimulation (EFS). To visualize the neuronal excitability response, intracellular Ca^+2 transients were monitored using the Ca^+2 indicator, Ca5. Ca5 was added to the cultures 1 h prior to EFS. Representative test compounds of the invention (i.e., test compounds) and reference compound, tetracaine, were added in concentration-response format encompassing six concentrations, performed in duplicate. The highest concentration tested was typically 30 μM with 1 in 3 dilutions generating the subsequent concentrations.
Effects on DRG excitability by the test compounds and standard were evaluated using four EFS protocols as disclosed in Table 2.
Experimental results were performed using two separate sets of plates using separate test compound and standard dilutions, to provide n=2. In the first set of experiments, compounds were added 24 h prior to EFS to increase the possibility to also detect more long-term compound effects. In the second set of experiments the compounds were added directly prior to EFS. Excitability response to EFS was analyzed as the average fluorescence ratio (peak/baseline) change per well. All plates were evaluated using high content imaging equipment post-EFS, imaging the Ca5 background staining to detect any possible compound-related toxic effects.
Average response by the standard compound, tetracaine, was 4.05 μM.

Setting [3] is: Rattus norvegicus, Table 3, electrical field stimulation, Ca5 indicator, read-out: Scoring (EC50, Rat DRG excitability).

Take `CCOc1ccc2ccc(=O)oc2c1` [7-ethoxycoumarin, reference compound]: in series [1], the “Average PDR60” value is given as “<= 65%”. As to `CC1(C)CCC2=C1CC[C@H]([C@@]1(C)Cc3cn[nH]c3C[C@@H]1CO)[C@H]2CN` [Ia-2, ((5R,6S)-5-((4R,5S)-4-(aminomethyl)-1,1-dimethyl-2,3,4,5,6,7-hexahydro-1H-inden-5-yl)-5-methyl-4,5,6,7-tetrahydro-1H-indazol-6-yl)methanol], the EC50 in series [2] (setting [3]) was > 15000 nM. Moreover, the “Scoring (% of drug remaining after 60 minutes, PDR60)” value in series [1] is “B (a PDR^60 of 61 to 80%)”. On to `C[C@H]1CC[C@H]2[C@H](CO)[C@@H]([C@@]3(C)Cc4cn[nH]c4C[C@@H]3CO)CC[C@]12C` [Ia-5, ((5R,6S)-5-((1S,3aS,4S,5S,7aR)-4-(hydroxymethyl)-1,7a-dimethyloctahydro-1H-inden-5-yl)-5-methyl-4,5,6,7-tetrahydro-1H-indazol-6-yl)methanol], for which, in series [1], the “Scoring (% of drug remaining after 60 minutes, PDR60)” value is recorded as “D (a PDR^60 of 0 to 30%)”. On to `C=C1CC[C@H]2[C@H](CN)[C@@H]([C@@]3(C)Cc4cn(-c5ccccn5)nc4C[C@@H]3CO)CC[C@]12C` [Ia-11, ((5R,6S)-5-((3aS,4R,5S,7aS)-4-(aminomethyl)-7a-methyl-1-methyleneoctahydro-1H-inden-5-yl)-5-methyl-2-(pyridin-2-yl)-4,5,6,7-tetrahydro-2H-indazol-6-yl)methanol], for which the EC50 in series [2] (setting [3]) lay in the range of 2000 to 6000 nM. In addition, in series [1], the “Scoring (% of drug remaining after 60 minutes, PDR60)” value is “B (a PDR^60 of 61 to 80%)”. The like results for `C=C1CC[C@H]2[C@H](CN)[C@@H]([C@@]3(C)Cc4cnn(C(C)(C)C)c4C[C@@H]3CO)CC[C@]12C` [Ia-12, ((5R,6S)-5-((3aS,4R,5S,7aS)-4-(aminomethyl)-7a-methyl-1-methyleneoctahydro-1H-inden-5-yl)-1-(tert-butyl)-5-methyl-4,5,6,7-tetrahydro-1H-indazol-6-yl)methanol] were, in that order, 2000 to 6000 nM and “D (a PDR^60 of 0 to 30%)”.

As to `C=C1CC[C@H]2[C@H](CN)[C@@H]([C@@]3(C)Cc4cn(C(C)(C)C)nc4C[C@@H]3CO)CC[C@]12C` [Ia-13, ((5R,6S)-5-((3aS,4R,5S,7aS)-4-(aminomethyl)-7a-methyl-1-methyleneoctahydro-1H-inden-5-yl)-2-(tert-butyl)-5-methyl-4,5,6,7-tetrahydro-2H-indazol-6-yl)methanol], the EC50 in series [2] (setting [3]) was in the range of 2000 to 6000 nM. The “Scoring (% of drug remaining after 60 minutes, PDR60)” value in series [1] is on record as “A (a PDR^60 of 81 to 100%)”.

As to `C=C1CC[C@H]2[C@H](CN)[C@@H]([C@@]3(C)Cc4cn(CC(C)(C)C)nc4C[C@@H]3CO)CC[C@]12C` [Ia-23, ((5R,6S)-5-((3aS,4R,5S,7aS)-4-(aminomethyl)-7a-methyl-1-methyleneoctahydro-1H-inden-5-yl)-5-methyl-2-neopentyl-4,5,6,7-tetrahydro-2H-indazol-6-yl)methanol], the EC50 in series [2] (setting [3]) lay within 2000 to 6000 nM.

For `C[C@]1([C@H]2CC[C@]3(C)C=CC[C@H]3[C@@H]2CN)Cc2cn[nH]c2C[C@@H]1CO` [Ia-28, ((5R,6S)-5-((3aR,6S,7R,7aS)-7-(aminomethyl)-3a-methyl-3a,4,5,6,7,7a-hexahydro-1H-inden-6-yl)-5-methyl-4,5,6,7-tetrahydro-1H-indazol-6-yl)methanol], in series [1], the “Scoring (% of drug remaining after 60 minutes, PDR60)” value was “A (a PDR^60 of 81 to 100%)”.

Regarding `C[C@H]1CC[C@H]2[C@H](CN)[C@@H]([C@@]3(C)Cc4cnn(-c5ccccc5)c4C[C@@H]3CO)CC[C@]12C` [Ia-35, ((5R,6S)-5-((1S,3aS,4S,5S,7aR)-4-(aminomethyl)-1,7a-dimethyloctahydro-1H-inden-5-yl)-5-methyl-1-phenyl-4,5,6,7-tetrahydro-1H-indazol-6-yl)methanol], the EC50 in series [2] (setting [3]) is < 2000 nM. On the same count and under the same terms, in the case of `C[C@H]1CC[C@H]2[C@H](CN)[C@@H]([C@@]3(C)Cc4cnn(C5CCCCC5)c4C[C@@H]3CO)CC[C@]12C` [Ia-37, ((5R,6S)-5-((1S,3aS,4S,5S,7aR)-4-(aminomethyl)-1,7a-dimethyloctahydro-1H-inden-5-yl)-1-cyclohexyl-5-methyl-4,5,6,7-tetrahydro-1H-indazol-6-yl)methanol] it was < 2000 nM; in that of `C[C@H]1CC[C@H]2[C@H](CN)[C@@H]([C@@]3(C)Cc4cnn(CC(C)(C)C)c4C[C@@H]3CO)CC[C@]12C` [Ia-38, ((5R,6S)-5-((1S,3aS,4S,5S,7aR)-4-(aminomethyl)-1,7a-dimethyloctahydro-1H-inden-5-yl)-5-methyl-1-neopentyl-4,5,6,7-tetrahydro-1H-indazol-6-yl)methanol], < 2000 nM; in that of `C[C@H]1CC[C@H]2[C@H](CN)[C@@H]([C@@]3(C)Cc4cnn(C(C)(C)C)c4C[C@@H]3CO)CC[C@]12C` [Ia-40, ((5R,6S)-5-((1S,3aS,4S,5S,7aR)-4-(aminomethyl)-1,7a-dimethyloctahydro-1H-inden-5-yl)-1-(tert-butyl)-5-methyl-4,5,6,7-tetrahydro-1H-indazol-6-yl)methanol], 2000 to 6000 nM. Regarding `C[C@H]1CC[C@H]2[C@H](CN)[C@@H]([C@@]3(C)Cc4cnn(-c5ccccn5)c4C[C@@H]3CO)CC[C@]12C` [Ia-42, ((5R,6S)-5-((1S,3aS,4S,5S,7aR)-4-(aminomethyl)-1,7a-dimethyloctahydro-1H-inden-5-yl)-5-methyl-1-(pyridin-2-yl)-4,5,6,7-tetrahydro-1H-indazol-6-yl)methanol], the EC50 in series [2] (setting [3]) was < 2000 nM. On to `C[C@H]1CC[C@H]2[C@H](CN)[C@@H]([C@@]3(C)Cc4cn(-c5ccccn5)nc4C[C@@H]3CO)CC[C@]12C` [Ia-43, ((5R,6S)-5-((1S,3aS,4S,5S,7aR)-4-(aminomethyl)-1,7a-dimethyloctahydro-1H-inden-5-yl)-5-methyl-2-(pyridin-2-yl)-4,5,6,7-tetrahydro-2H-indazol-6-yl)methanol], for which the EC50 in series [2] (setting [3]) is < 2000 nM.

As for `CC(C)CCC[C@@H](C)[C@H]1CC[C@H]2[C@H](CN)[C@@H]([C@@]3(C)Cc4cn[nH]c4C[C@@H]3CN)CC[C@]12C` [Ia-57, ((1R,3aS,4S,5S,7aR)-5-((5R,6S)-6-(aminomethyl)-5-methyl-4,5,6,7-tetrahydro-1H-indazol-5-yl)-7a-methyl-1-((R)-6-methylheptan-2-yl)octahydro-1H-inden-4-yl)methanamine], in series [1], the “Scoring (% of drug remaining after 60 minutes, PDR60)” value is on record as “A (a PDR^60 of 81 to 100%)”. As for `C=C1CC[C@H]2[C@H](CN)[C@@H]([C@@]3(C)Cc4cn[nH]c4C[C@@H]3CN)CC[C@]12C` [Ia-58, ((3aS,4R,5S,7aS)-5-((5R,6S)-6-(aminomethyl)-5-methyl-4,5,6,7-tetrahydro-1H-indazol-5-yl)-7a-methyl-1-methyleneoctahydro-1H-inden-4-yl)methanamine], in series [1], the “Scoring (% of drug remaining after 60 minutes, PDR60)” value is on record as “A (a PDR^60 of 81 to 100%)”.

With `CCCCNc1ccc(C(=O)OCCN(C)C)cc1` [tetracaine, reference compound], the EC50 in series [2] (Rat DRG excitability, read-out: Average response by the standard compound) was determined as 4050 nM.
